Drawing on paper PMC9784055, “Meroterpenoids and Steroids from the Marine-Derived Fungus Trametes sp. ZYX-Z-16” (Molecules, 2022), this text covers MIC and IC50 for 16 compounds.

SMILES strings stand for the structures. In brackets after ≈: the same amount, converted by molar mass.

Assay [1] deals with Fusarium spp. Put plainly: microbe, parasite or virus in culture. The note with it: 48 h, read-out: Fusarium spp. MIC. As for the experimental part:
(§1) Four bacteria (Staphylococcus aureus ATCC6538, Bacillus subtilis ATCC 6633, Escherichia coli ATCC 25922, and Listeria monocytogenes ATCC 1911) were used for antibacterial evaluation for all compounds, referring to the previous method with ampicillin as a positive control. The bacteria inhibitory activity of all compounds was observed after 12 h in a constant temperature incubator at 37 °C. Five phytopathogens (Fusarium oxysporum f. sp. cubense, Fusarium spp., Peronophythora litchii, Colletotrichum gloeosporioides, and Hylocereus undatus) were used for antifungal evaluation for all compounds, referring to the previous broth microdilution method with carbendazim as a positive control. The fungal inhibitory activity of all compounds was observed after 48 h in a constant temperature incubator at 28 °C. […] Each test was performed in triplicate.

The test system of assay [2] is T1, Bacillus subtilis.
T1 construct: ATCC 6633
As to the kind of experiment: microbe, parasite or virus in culture. Also noted: antibacterial 96-well microtiter plate assay, visible growth, 37 °C. Particulars: 12 h. From the text: (§2) Four bacteria (Staphylococcus aureus ATCC6538, Bacillus subtilis ATCC 6633, Escherichia coli ATCC 25922, and Listeria monocytogenes ATCC 1911) were used for antibacterial evaluation for all compounds, referring to the previous method with ampicillin as a positive control. […] Five phytopathogens (Fusarium oxysporum f. sp. cubense, Fusarium spp., Peronophythora litchii, Colletotrichum gloeosporioides, and Hylocereus undatus) were used for antifungal evaluation for all compounds, referring to the previous broth microdilution method with carbendazim as a positive control. […] Each test was performed in triplicate. The inhibitory activity of all compounds against four bacteria (Staphylococcus aureus ATCC6538, Bacillus subtilis ATCC 6633, Escherichia coli ATCC 25922, and Listeria monocytogenes ATCC 1911) was evaluated using the 96-well microtiter plates method.

Assay [3] has as its system T2, Escherichia coli.
T2 construct: ATCC 25922
Put plainly: microbe, parasite or virus in culture. The note with it: 12 h. Also noted: antibacterial 96-well microtiter plate assay, visible growth, 37 °C.
Source text: as §2

For assay [4], the system named is T3, Staphylococcus aureus.
T3 construct: ATCC 6538
As to the kind of experiment: microbe, parasite or virus in culture. Also noted: antibacterial 96-well microtiter plate assay, visible growth, 37 °C. The note with it: 12 h.
Source text: as §2

The subject of assay [5] is T4, Listeria monocytogenes.
T4 construct: ATCC 1911
As to the kind of experiment: microbe, parasite or virus in culture. Also noted: antibacterial 96-well microtiter plate assay, visible growth, 37 °C. The note with it: 12 h.
Source text: as §2

Assay [6] relates to Fusarium oxysporum f. sp. cubense. As to the kind of experiment: microbe, parasite or virus in culture. On the set-up: antifungal broth microdilution, visible growth, 28 °C. Particulars: 48 h. As for the experimental part: as §1, with “triplicate. The inhibitory activities of all compounds against five phytopathogenic fungi (Fusarium oxysporum f. sp. cubense, Fusarium spp., Peronophythora litchii, Colletotrichum gloeosporioides, and Hylocereus undatus) were evaluated using the broth microdilution method.” for “triplicate.”

The test system of assay [7] is Peronophythora litchii. As to the kind of experiment: microbe, parasite or virus in culture. Also noted: antifungal broth microdilution, visible growth, 28 °C. The note with it: Phytophthora litchii, 48 h. How it is done:
as §1, with “triplicate. The inhibitory activities of all compounds against five phytopathogenic fungi (Fusarium oxysporum f. sp. cubense, Fusarium spp., Peronophythora litchii, Colletotrichum gloeosporioides, and Hylocereus undatus) were evaluated using the broth microdilution method.” for “triplicate.”

Assay [8] has as its system Colletotrichum gloeosporioides. Put plainly: microbe, parasite or virus in culture. The note with it: 48 h. Also noted: antifungal broth microdilution, visible growth, 28 °C. How it is done: as §1, with “triplicate. The inhibitory activities of all compounds against five phytopathogenic fungi (Fusarium oxysporum f. sp. cubense, Fusarium spp., Peronophythora litchii, Colletotrichum gloeosporioides, and Hylocereus undatus) were evaluated using the broth microdilution method.” for “triplicate.”

Assay [9] addresses α-glucosidase. As to the kind of experiment: α-glucosidase inhibition assay with p-NPG as substrate. In kind it is biochemical.

Regarding `COC(=O)C1=C(C)C2(C)CC3(OC2=C(C)C1=O)C(C)CCC1C(C)(C)OC(=O)CCC13C` (stereo not shown) [compound 3, asnovolin C 5′6′-dehydro hydrogen], the MIC in assay [1], in assay [2], in [3], in assay [4], in [5] and in assay [6] was more than 128 µg/mL throughout. Also, the MIC in [7] and in [8] was more than 128 µg/mL in each case.
With `CC1=CC(=O)C(C)=C2O[C@@]3(C[C@]12C)[C@@H](C)CC[C@H]1C(C)(C)[C@@H](O)CC[C@@]13C` [compound 5, chermesin A], the MIC in assay [1] is more than 128 µg/mL; in assay [2], more than 128 µg/mL; in assay [3], more than 128 µg/mL; in assay [4], 128 µg/mL (≈ 344 µM); in assay [5], more than 128 µg/mL; in assay [6] it was more than 128 µg/mL. The MIC in assay [7] and in [8] was more than 128 µg/mL throughout.
With `CC1=C2O[C@@]3(C[C@]2(C)C(C)=C(C(=O)O)C1=O)[C@@H](C)CC[C@H]1C(C)(C)OC(=O)CC[C@@]13C` [compound 2, asnovolin I], the MIC in [1], in assay [2], in assay [3], in assay [4], in [5] and in [6] was more than 128 µg/mL in each case. Besides, the MIC in assay [7] and in assay [8] was more than 128 µg/mL each time.
Consider `CC(C)[C@@H](C)/C=C/[C@@H](C)[C@H]1CC(=O)C2=C3C=CC4=CC(=O)CC[C@]4(C)[C@@]3(O)CC[C@@]21C` [compound 17, ganodermaside C], for which the MIC in assay [1], in [2], in assay [3], in [4], in assay [5] and in assay [6] was more than 128 µg/mL each time. Besides, the MIC in assay [7] and in assay [8] was more than 128 µg/mL each time.
As to `CO[C@@H]1C[C@H]([C@H](C)/C=C/[C@H](C)C(C)C)[C@@]2(C)CC[C@H]3C(=C12)C=CC1=CC(=O)CC[C@@]13C` [compound 16, 15β-methoxy-ergosta-4,6,8(14),22E-tetraene-3-one], the MIC in assay [1], in [2], in assay [3], in [4], in assay [5] and in assay [6] was more than 128 µg/mL each time. The MIC in [7] and in assay [8] was more than 128 µg/mL in each case.
Take `CC1(C)S[C@@H]2[C@H](NC(=O)[C@H](N)c3ccccc3)C(=O)N2[C@H]1C(=O)O` [Ampicillin]: the MIC in [2], in assay [3], in [4] and in assay [5] was less than 1 µg/mL in each case.
As to `COC(=O)C1C(=O)C(C)=C2OC3(CC2(C)C1C)C(C)C(O)CC1C(C)(C)OC(=O)CCC13C` (stereo not shown) [compound 1, asnovolin H], the MIC in [1], in assay [2], in assay [3], in assay [4], in [5] and in assay [6] was more than 128 µg/mL each time. The MIC in assay [7] and in [8] was more than 128 µg/mL each time.
Regarding `CC(C)C(C)C=CC(C)C1CCC2C3CC(O)C4=CC(=O)CCC4(C)C3CCC12C` (stereo not drawn) [compound 13, ergosta-6α-hydroxy-4,22E-dien-3-one], the MIC in [1], in [2], in [3], in assay [4], in [5] and in assay [6] was more than 128 µg/mL each time. The MIC in [7] and in [8] was more than 128 µg/mL each time.
Take `COC(=O)Nc1nc2ccccc2[nH]1` [Carbendazim]: the MIC in assay [1], in assay [6], in [7] and in assay [8] was less than 1 µg/mL in each case.
Take `CC(C)[C@@H](C)/C=C/[C@@H](C)[C@H]1C[C@H](O)C2=C3C=CC4=CC(=O)CC[C@]4(C)C3CC[C@@]21C` (stereo partly shown) [compound 18, ganodermaside A]: the MIC in [1], in [2], in assay [3], in [4], in assay [5] and in [6] was more than 128 µg/mL throughout. In addition, the MIC in [7] and in [8] was more than 128 µg/mL in each case.
On to `CC(C)[C@@H](C)/C=C/[C@@H](C)[C@H]1CC[C@H]2C3=C(CC[C@]12C)[C@@]1(C)CCC(=O)C=C1C=C3` [compound 9, ergosta-4,6,8,22E-tetraene-3-one], for which the MIC in [1], in assay [2], in [3], in assay [4], in [5] and in [6] was more than 128 µg/mL each time. The MIC in [7] and in assay [8] was more than 128 µg/mL in each case.
Regarding `COC(=O)CC[C@@]1(C)[C@H](C(C)(C)O)CC[C@H](C)[C@@]12C[C@@]1(C)C(=C(C)C(=O)[C@@H](C(=O)OC)[C@@H]1C)O2` [compound 4, asnovolin C], the MIC in assay [1], in assay [2], in assay [3], in assay [4], in assay [5] and in assay [6] was more than 128 µg/mL throughout. In addition, the MIC in assay [7] and in assay [8] was more than 128 µg/mL each time.
Regarding `C[C@@H]1Cc2c3c(cc(O)c2C(=O)O1)O[C@@]1(C)[C@@H](O)C[C@H]2C(C)(C)C(=O)C=C[C@]2(C)[C@@H]1C3` [compound 6, chrodrimanin E], the MIC in assay [1], in assay [2], in [3], in assay [4], in assay [5] and in [6] was more than 128 µg/mL throughout. Further, the MIC in assay [7] and in [8] was more than 128 µg/mL each time.
`CC(=O)O[C@@H]1c2c3c(cc(O)c2C(=O)O[C@@H]1C)O[C@]1(C)[C@H](C3)[C@@]2(C)CCC(=O)C(C)(C)[C@@H]2C[C@@H]1O` [compound 8, thailandolide B]: the MIC in assay [1], in assay [2], in assay [3], in [4], in assay [5] and in [6] was more than 128 µg/mL in each case. Moreover, the MIC in assay [7] and in assay [8] was more than 128 µg/mL in each case.
`C[C@@H]1Cc2c3c(cc(O)c2C(=O)O1)O[C@@]1(C)[C@@H](O)C[C@H]2C(C)(C)C(=O)CC[C@]2(C)[C@@H]1C3` [compound 7, chrodrimanin H]: the MIC in [1], in assay [2], in [3], in assay [4], in [5] and in assay [6] was more than 128 µg/mL in each case. Moreover, the MIC in assay [7] and in [8] was more than 128 µg/mL throughout.
`CC(C)[C@@H](C)/C=C/[C@@H](C)[C@H]1CC[C@@]2(O)C3=CC(=O)C4=CC(=O)CC[C@]4(C)[C@H]3CC[C@]12C` [compound 10, 14α-hydroxyergosta-4,7,22E-triene-3,6-dione]: the MIC in [1], in assay [2], in assay [3], in assay [4], in assay [5] and in assay [6] was more than 128 µg/mL in each case. Moreover, the MIC in [7] and in [8] was more than 128 µg/mL throughout. For the same compound, in [9], the IC50 is 111 µM.
